# Measured values from article PMC3407934, “Functional Expression in Escherichia coli of the Disulfide-Rich Sea Anemone Peptide APETx2, a Potent Blocker of Acid-Sensing Ion Channel 3” (Marine Drugs, 2012).
# Entries after “also recorded” stand apart in the source; their conditions may differ. Read-outs that look alike come from different tables or passages of the source. Positions of bridges follow the written chain, without caps; N, C: chain ends. No end group written: not given here.
# How the values were obtained:
# ASIC3 = details: cited from earlier work; for potency and specificity of ASIC3 inhibition (in words): statement on the majority of currently known inhibitors of ASIC3
# Description: Acid-sensing ion channels (ASICs) are proton-gated sodium channels present in the central and peripheral nervous system of chordates. ASIC3 is highly expressed in sensory neurons and plays an important role in inflammatory and ischemic pain. Thus, specific inhibitors of ASIC3 have the potential to be developed as novel analgesics. […] However, the mechanism of action of APETx2 and the molecular basis for its interaction with ASIC3 is not known. In order to assis ... || The pharmacology of ASIC3 is still relatively poorly understood when compared with voltage-gated sodium (NaV) and calcium (CaV) channels. Thus, the characterization of, and development of structure-activity relationships for, selective ASIC3 modulators will be useful for characterizing the function of ASIC3 under both normal and pathophysiological conditions.
# NaV1.8 = details: cited from earlier work
# Description: (§1) The pharmacology of ASIC3 is still relatively poorly understood when compared with voltage-gated sodium (NaV) and calcium (CaV) channels. Thus, the characterization of, and development of structure-activity relationships for, selective ASIC3 modulators will be useful for characterizing the function of ASIC3 under both normal and pathophysiological conditions.
# [1] = system: acid-induced and post-operative pain in rats; design: method as in PMID 18923424, PMID 21508231, PMID 20860671; details: cited from earlier work
# rodent pain models = details: cited from earlier work
# Description: as §1, with “conditions. […] The majority of currently known inhibitors of ASIC3 (e.g., gadolinium, a ...” for “conditions.”
# [2] = system: ASIC3-containing channels (ASIC3, ASIC3/1a, ASIC3/1b, ASIC3/2b); details: cited from earlier work
# Description: as §1, with “conditions. […] The majority of currently known inhibitors of ASIC3 (e.g., gadolinium, a ...” for “conditions.”
# rat ASIC3 = target: T1, rat ASIC3 (Rattus norvegicus, UniProt O35240); assay: Inhibition of homomeric rat ASIC3 currents in Xenopus oocytes (two-electrode voltage clamp); type: cell-based; details: rat ASIC3 in Xenopus laevis oocytes; pH drop from 7.4 to 6.0 every minute; -60 mV; RT (18–21 °C); ND96 with 0.1% BSA; pH 6 stimulus buffered with MES
# T1 construct: expressed in transfected cells; host or cells: Xenopus laevis oocytes (cRNA injection)
# T1 sequence (O35240 1-533): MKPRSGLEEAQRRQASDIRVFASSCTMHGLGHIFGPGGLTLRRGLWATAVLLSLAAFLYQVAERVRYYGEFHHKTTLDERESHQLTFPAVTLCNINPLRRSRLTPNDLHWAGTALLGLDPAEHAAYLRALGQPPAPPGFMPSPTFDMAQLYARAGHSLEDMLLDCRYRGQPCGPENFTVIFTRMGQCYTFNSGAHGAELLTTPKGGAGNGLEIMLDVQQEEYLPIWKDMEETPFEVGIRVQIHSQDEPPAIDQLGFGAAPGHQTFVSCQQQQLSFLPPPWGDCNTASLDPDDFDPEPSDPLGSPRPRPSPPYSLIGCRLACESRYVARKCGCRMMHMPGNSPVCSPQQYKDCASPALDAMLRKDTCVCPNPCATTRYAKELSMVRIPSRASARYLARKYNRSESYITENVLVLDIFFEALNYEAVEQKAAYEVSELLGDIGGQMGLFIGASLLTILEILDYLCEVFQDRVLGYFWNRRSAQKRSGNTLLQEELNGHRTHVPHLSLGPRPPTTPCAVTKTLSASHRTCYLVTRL
# Protocol: The efficacy of rAPETx2 was tested on rat ASIC3 expressed in Xenopus laevis oocytes.
# Figure 4 (A) Representative current traces comparing the concentration-dependent inhibition of rat ASIC3 (expressed in Xenopus oocytes) by synthetic (s) and recombinant (r) APETx2. (B) Concentration-effect curves for sAPETx2 and an rAPETx2–F15A mutant.
# Oocytes were obtained from Xenopus laevis and defolliculatd by treatment with collagenase (Sigma type I). Rat ASIC3 cRNA was synthesised using an mMessage mMachine cRNA transcription kit and healthy stage V–VI oocytes injected with 4 ng rat ASIC3 cRNA (40 nL of 100 ng/μL). Oocytes were kept at 17 °C in ND96 solution (96 mM NaCl, 2 mM KCl, 1 mM CaCl2, 2 mM MgCl2, 5 mM HEPES, 5 mM pyruvic acid, 50 µg/mL gentamicin, 2.5% fetal horse serum, pH 7.4). Membrane currents were recorded 2–6 days post cRNA injection under voltage-clamp (Axoclamp 900A amplifier, Molecular Devices, Sunnyvale, CA, USA) using two standard glass microelectrodes with resistances of 0.5–1 MΩ when filled with 3 M KCl solution. Data acquisition and analysis were performed using pCLAMP software (Version 10, Molecular Devices, Sunnyvale, CA, USA). Oocytes were clamped at −60 mV with data sampled at 1000 Hz and filtered at […]. All experiments were performed at RT (18–21 °C) in ND96 solution containing 0.1% fatty acid free-bovine serum albumin (BSA). […]
molecule,measurement,setting,value
"Cc1nc(NC(=N)N)nc2ccccc12 [GMQ, 2-guanidine-4-methylquinazoline]",ASIC3 agonism (in words),ASIC3; normal pH,persistent activation at normal pH
N=C(N)NC(=O)c1nc(Cl)c(N)nc1N [amiloride],potency and specificity of ASIC3 inhibition (in words),ASIC3,neither potent nor specific
APETx2,potency and selectivity for ASIC3 (in words),ASIC3; ASIC3 / ASIC3-containing channels,most potent and selective inhibitor of ASIC3-containing channels; also recorded: only known potent and selective inhibitor of ASIC3; also recorded: specific peptide blocker of ASIC3
same,inhibition of NaV1.8 (in words),NaV1.8,inhibits NaV 1.8
same,potency on NaV1.8 relative to ASIC3 (in words),NaV1.8; compared with ASIC3,lower potency than for ASIC3
same,effect on acid-induced and post-operative pain (in words),[1],abolish acid-induced and post-operative pain in rats
same,analgesic effect in rodent pain models (in words),rodent pain models,analgesic in rodent pain models
same,IC50,"[2]; homomeric ASIC3, read-out: IC50 for homomeric ASIC3",~60 nM
same,IC50,"[2]; upper end of range, depending on the subunit composition of the channel, read-out: IC50 for ASIC3-containing channels (upper end)",≤ 2000 nM
"GTACSCGNSKGIYWFYRPSCPTDRGYTGSCRYFLGTCCTPAD (disulfide 4-37, 6-30, 20-38) [rAPETx2]",IC50,rat ASIC3,80 nM
[Gd] [gadolinium],potency and specificity of ASIC3 inhibition (in words),ASIC3,neither potent nor specific
